From PMC4099174 (Journal of Medicinal Chemistry, 2014)
Read-outs that look alike come from different tables or passages of the source. Marks after values point to notes of the source that are not given here.

Assays:
[1] = test system: phosphorylated PIs (PIP, PIP3) in T. brucei cells; experiment: Phospholipidomics analysis (ES-MS of lipid extracts); type: cell-based, Trypanosoma brucei; details: 200 nM, 12 h; negative ion mode scans 950–1300 m/z
Description: We originally selected 1 to investigate its potential as an trypanocidal agent on the basis of its activity as a PI3K/mTOR inhibitor in mammalian cells and the fact that PI3K activity is essential for the bloodstream form of the T. brucei parasite.[25] In the interest of elucidating the potential mechanism of action against T. brucei cells, we performed a lipidomic analysis to discern if PI kinases are likely targets of these analogues. Lipid extracts of cells grown in the presence of the best compounds at sublethal doses (200 nM) for 12 h were analyzed by ES-MS. […] There were no significant differences in the phosphatidylcholine (PC) and sphingomylein (SM) species between the control and cells grown in the presence of the other compounds (Figure S1). […] Alternatively, as is often the case, changes in the lipid profile could be a reflection in the cells succumbing to (or adapting to) a defect in a major cellular process, such as endo- or exocytosis or cell cycle arrest.
Because these compounds are thought to target PI3K, negative ion mode scans between 950 and 1300 m/z were conducted to focus upon singly and multiply phosphorylated PIs.
Total lipids from mid log phase cells were extracted by the method of Bligh and Dyer.[30] Briefly, mid log phase cells were collected by centrifugation (800g, 10 min), washed with PBS, resuspended in 100 μL of TDB-glucose, transferred to a glass tube containing 375 μL of 1:2 (v/v) CHCl3/MeOH, and vortexed. The sample was agitated vigorously for a further 10–15 min. The sample was made biphasic by the addition of 125 μL of CHCl3 and vortexed, and then 125 μL of H2O was added. The sample was vortexed again and centrifuged at 3000g at rt for 10 min. The lower (organic) phase was transferred into a new glass vial, and the aqueous phase was re-extracted with the fresh lower phase. The resultant lower phase lipid extract was dried under a stream of nitrogen and stored at 4 °C.
Lipid extracts were dissolved in 15 μL of CHCl3/MeOH (1:2) and 15 μL of acetonitrile/isopropanol/water (6:7:2) and analyzed with a triple quadrupole mass spectrometer (Absceix 4000 QTrap) equipped with a nanoelectrospray source. […] The lipid extracts were analyzed in both positive and negative ion modes using a capillary voltage of 1.25 kV. […] Tandem mass spectra (MS/MS) were obtained with collision energies as follows: 35–45 V, PC/SM in positive ion mode, parent-ion scanning of m/z 184; 35–55 V, PI in negative ion mode, parent-ion scanning of m/z 241; 35–65 V, PE in negative ion mode, parent-ion scanning of m/z 196; 20–35 V, PS in negative ion mode, neutral loss scanning of m/z 87; and 40–90 V, for all glycerophospholipids (including PA, PG, and cardiolipin) detected by precursor scanning for m/z 153 in negative ion mode. […]

[2] = test system: bloodstream form of T. brucei; experiment: Transferrin uptake (receptor-mediated endocytosis); type: cell-based, Trypanosoma brucei; details: concentration twice the EC50, 18 h
Description: Highly efficient and rapid endocytosis is one of the most important cellular processes for this infective parasite to survive and multiply within the bloodstream of the host, and the activity of TbPI3KIII is essential for this process.[25] To gain insight on the possible target(s) of our compounds, we carried out transferrin uptake experiments to measure receptor-mediated endocytosis after drug treatment. […] Compound 16e induced a phenotype defective in endocytosis (Figure 3); however, the PIP3 molecular species identified (42:7-9) was not the same PIP3 molecular species identified in WT cells (44:9-12).
Two million trypanosomes were harvested and washed with TDB-glucose plus 1% BSA, resuspended in 250 μL in the same buffer, and incubated for 10 min at 37 °C prior to the addition of 5 μg of AlexaFluor 488-conjugated human holo-Tf (Invitrogen). Incubations were carried out for 0 (no Tf) or 3 min at 37 °C, after which cells were immediately fixed in 4 °C in 1% PFA diluted in cold PBS for at least 1 h. Parasites were finally washed twice with PBS and analyzed with a Becton Dickinson FACSCalibur flow cytometer (BD Biosciences) using BD CellQuest Pro version 4.0.2 software.

[3] = test system: Bloodstream form culture of T. b. brucei; experiment: Cell cycle analysis by FACS (propidium iodide); type: cell-based, Trypanosoma brucei brucei; details: concentration twice the EC50, 18 h
Method: For cell cycle analysis, samples (1.5 × 10^6 cells) were collected, centrifuged (1400g at 4 °C for 5 min), and washed in trypanosome dilution buffer (TDB). The cell pellets were gently suspended in 50 μL of TDB and permeabilized by adding 1 μL of saponin (25 mg/mL) for 3 min. It was then mixed with another 450 μL of TDB. RNase and propidium iodide (PI) were added to the suspension at final concentrations of 10 and 20 μg/mL, respectively, and the samples were incubated at room temperature for 30 min and then stored at 4 °C. The DNA content of PI-stained cells and the percentage of cells in each phase of the cell cycle (10 000 cells per sample) were analyzed with a Becton Dickinson FACSCalibur flow cytometer (BD Biosciences) using BD CellQuest Pro version 4.0.2 software.
Figure S3. Cell Cycle analysis of parasites upon dosage with NVP-BEZ235 derivative.
Bloodstream form culture of T. b. brucei was subjected to different drugs and analyzed by
Fluorescencecactivated cell sorter (FACS) for DNA content stained by propidium iodide (PI).
Cell cultures were incubated during 18 h with various NVPcBEZ235 derivatives using DMSO as
a control treatment. Mean ± SD of three independent experiments are shown.

[4] = Table 1, Selectivity = TC50/EC50 (HepG2 / T. brucei)
[5] = Table 2, Selectivity = TC50/EC50

**Q.** `CN1CCN(c2ccc3ncc4c(c3c2)n(-c2ccc(C(C)(C)C#N)cc2)c(=O)n4C)CC1` [Compound 5a, 2-Methyl-2-(4-(3-methyl-8-(4-methylpiperazin-1-yl)-2-oxo-2,3-dihydro-1H-imidazo[4,5-c]quinolin-1-yl)phenyl)propanenitrile] was tested. Which Selectivity (HepG2 cell line; [4]) did it give?
**A.** Its Selectivity is over 5.

**Q.** Which Selectivity (HepG2 cell line; [5]) does the source give for `Cn1c(=O)n(-c2ccccc2)c2c3cc(-c4cnc5ccccc5c4)ccc3ncc21` [Compound 16c, 3-Methyl-1-phenyl-8-(quinolin-3-yl)-1H-imidazo[4,5-c]quinolin-2(3H)-one] here?
**A.** The Selectivity was over 1000.

**Q.** How did the “phosphorylated PI (PIP) levels vs control cells” value [1] turn out when `Cn1cc(-c2ccc3ncc4c(c3c2)n(-c2ccc(C(C)(C)C#N)cc2)c(=O)n4C)cn1` [Compound 4e, 2-Methyl-2-(4-(3-methyl-8-(1-methyl-1H-pyrazol-4-yl)-2-oxo-2,3-dihydro-1H-imidazo[4,5-c]quinolin-1-yl)phenyl)propanenitrile] was run?
**A.** The value was “significant (albeit incomplete) reduction in PIP levels”.

**Q.** What about the “transferrin uptake / endocytosis” value [2] of the same molecule?
**A.** Its value is “did not significantly reduce transferrin endocytosis”.

**Q.** And the cell cycle progression [3]?
**A.** The cell cycle progression was “reducing the proportion of cells in G1 and increasing multinucleated cells”.

**Q.** Which Selectivity (HepG2 cell line; [4]) does the source give for `Cc1ccc2ncc3c(c2c1)n(-c1ccc(C(C)(C)C#N)cc1)c(=O)n3C` [Compound 8, 2-(4-(3,8-Dimethyl-2-oxo-2,3-dihydro-1H-imidazo[4,5-c]quinolin-1-yl)phenyl)-2-methylpropanenitrile] here?
**A.** The Selectivity was over 10.

**Q.** For `CC(=O)Nc1ccc2ncc3c(c2c1)n(-c1ccc(C(C)(C)C#N)cc1)c(=O)n3C` [Compound 7, N-(1-(4-(2-Cyanopropan-2-yl)phenyl)-3-methyl-2-oxo-2,3-dihydro-1H-imidazo[4,5-c]quinolin-8-yl)acetamide], which Selectivity (HepG2 cell line; [4]) is on record?
**A.** The Selectivity was over 5.

**Q.** How did the “HepG2 TC50” value (HepG2 cell line; human, 48 h) turn out when `Cn1c(=O)n(-c2ccc(C(C)(C)C#N)cc2)c2c3cc(-c4ccccc4)ccc3ncc21` [Compound 4c, 2-Methyl-2-(4-(3-methyl-2-oxo-8-phenyl-2,3-dihydro-1H-imidazo[4,5-c]quinolin-1-yl)phenyl)propanenitrile] was run?
**A.** Its value is 1.82^d μM.

**Q.** With `Cn1c(=O)n(-c2ccc(C(C)(C)C#N)cc2)c2c3cc(-c4cc5ccccc5s4)ccc3ncc21` [Compound 4f, 2-(4-(8-(Benzo[b]thiophen-2-yl)-3-methyl-2-oxo-2,3-dihydro-1H-imidazo[4,5-c]quinolin-1-yl)phenyl)-2-methylpropanenitrile] as the molecule, how does the Selectivity (HepG2 cell line; [4]) read?
**A.** The Selectivity was over 460.

**Q.** What about the “HepG2 toxicity (in words)” value (HepG2 cell line; human, 48 h) of the same molecule?
**A.** The value was “no HepG2 toxicity observed”.

**Q.** `Cn1c(=O)n(-c2ccc(C(F)(F)F)cc2)c2c3cc(-c4cnc5ccccc5c4)ccc3ncc21` [Compound 16a, 3-Methyl-8-(quinolin-3-yl)-1-(4-(trifluoromethyl)phenyl)-1H-imidazo[4,5-c]quinolin-2(3H)-one] was tested. Which Selectivity (HepG2 cell line; [5]) did it give?
**A.** The Selectivity was over 240.

**Q.** How did the Selectivity (HepG2 cell line; [4]) turn out when `Cn1c(=O)n(-c2ccc(C(C)(C)C#N)cc2)c2c3cc(-c4ccc(C(F)(F)F)nc4)ccc3ncc21` [Compound 4d, 2-Methyl-2-(4-(3-methyl-2-oxo-8-(6-(trifluoromethyl)pyridin-3-yl)-2,3-dihydro-1H-imidazo[4,5-c]quinolin-1-yl)phenyl)propanenitrile] was run?
**A.** Its Selectivity is over 470.

**Q.** `Cn1c(=O)n(-c2ccc(C(C)(C)C#N)cc2)c2c3cc(N4CCOCC4)ccc3ncc21` [Compound 5b, 2-Methyl-2-(4-(3-methyl-8-morpholino-2-oxo-2,3-dihydro-1H-imidazo[4,5-c]quinolin-1-yl)phenyl)propanenitrile] was tested. Which Selectivity (HepG2 cell line; [4]) did it give?
**A.** The Selectivity was over 24.

**Q.** Which Selectivity (HepG2 cell line; [4]) does the source give for `Cn1c(=O)n(-c2ccc(C(C)(C)C#N)cc2)c2c3cc(N)ccc3ncc21` [Compound 6, 2-(4-(8-Amino-3-methyl-2-oxo-2,3-dihydro-1H-imidazo[4,5-c]quinolin-1-yl)phenyl)-2-methylpropanenitrile] here?
**A.** Its Selectivity is over 4.

**Q.** For `Cn1c(=O)n(-c2ccc(C#N)cc2)c2c3cc(-c4cnc5ccccc5c4)ccc3ncc21` [Compound 16b, 4-(3-Methyl-2-oxo-8-(quinolin-3-yl)-2,3-dihydro-1H-imidazo[4,5-c]quinolin-1-yl)benzonitrile], which Selectivity (HepG2 cell line; [5]) is on record?
**A.** Its Selectivity is over 540.

**Q.** How did the “HepG2 cytotoxicity TC50” value (HepG2 cell line; human, 48 h) turn out when `Cn1c(=O)n(-c2ccc(C(C)(C)C#N)cc2)c2c3cc(-c4cccnc4)ccc3ncc21` [Compound 4b, 2-Methyl-2-(4-(3-methyl-2-oxo-8-(pyridin-3-yl)-2,3-dihydro-1H-imidazo[4,5-c]quinolin-1-yl)phenyl)propanenitrile] was run?
**A.** Its value is 575 nM.

**Q.** `Cn1c(=O)n(-c2ccc(C(C)(C)C#N)cc2)c2c3cc(-c4ccncc4)ccc3ncc21` [Compound 4a] was tested. Which “HepG2 TC50” value (HepG2 cell line; human, 48 h) did it give?
**A.** The value was 3.43 µM.

**Q.** How did the Selectivity (HepG2 cell line; [5]) turn out when `Cn1c(=O)n(-c2ccc(CC#N)cc2)c2c3cc(-c4ccncc4)ccc3ncc21` [Compound 16d, 2-(4-(3-Methyl-2-oxo-8-(pyridin-4-yl)-2,3-dihydro-1H-imidazo[4,5-c]quinolin-1-yl)phenyl)acetonitrile] was run?
**A.** The Selectivity was over 560.

**Q.** For `CN(C)c1ccc(-n2c(=O)n(C)c3cnc4ccc(-c5ccncc5)cc4c32)cc1` [Compound 16h, 1-(4-(Dimethylamino)phenyl)-3-methyl-8-(pyridin-4-yl)-1H-imidazo[4,5-c]quinolin-2(3H)-one], which “HepG2 TC50” value (HepG2 cell line; human, 48 h) is on record?
**A.** The value was 2.34 µM.

**Q.** `Cn1c(=O)n(-c2ccc(C(C)(C)C#N)cc2)c2c3cc(C#Cc4cccnc4)ccc3ncc21` [Compound 10, reference compound] was tested. Which “HepG2 TC50” value (HepG2 cell line; human, 48 h) did it give?
**A.** Its value is 0.14^d μM.

**Q.** Which Selectivity (HepG2 cell line; [4]) does the source give for `Cn1c(=O)n(-c2ccc(C(C)(C)C#N)cc2)c2c3ccccc3ncc21` [Compound 9, 2-Methyl-2-(4-(3-methyl-2-oxo-2,3-dihydro-1H-imidazo[4,5-c]quinolin-1-yl)phenyl)propanenitrile] here?
**A.** Its Selectivity is over 80.

**Q.** And the “HepG2 TC50” value (HepG2 cell line; human, 48 h)?
**A.** The value was over 50 µM.

**Q.** Which Selectivity (HepG2 cell line; [5]) does the source give for `Cn1c(=O)n(-c2ccc(N3CCOCC3)cc2)c2c3cc(-c4ccncc4)ccc3ncc21` [Compound 16i, 3-Methyl-1-(4-morpholinophenyl)-8-(pyridin-4-yl)-1H-imidazo[4,5-c]quinolin-2(3H)-one] here?
**A.** The Selectivity was over 24.
